Series [1] in a line: Transmission electron microscopy (vesicle size, fibril formation). It is filed as physicochemical. The following applies: upon illumination 335-379 nm, 8.24 mW/cm^2, 3 mins. On the procedure: Transmission Electron Microscopy
The resulting aliquots of peptide solutions (5 μL) were applied on glow-charged 300 mesh formvar- and carbon-coated copper grids stained with 1% uranyl acetate. After drying overnight, all samples were analyzed using a JEM-2011 electron microscope (JEOL, Japan).

Series [2] concerns EGFP-TDP-43 in N2A cells. Briefly: EGFP-TDP-43 aggregation / co-localization in JHR2-treated N2A cells (confocal). It is filed as cell-based, mouse. On the procedure:
(§1) Cell Maintenance, Peptide Treatment, and Photolysis
(§2) Mouse neuroblastoma N2A cells (generous gift from Dr. Yijuang Chern, IBMS, Academia Sinica) were cultured in Dulbecco's modified Eagle's medium (DMEM) (Invitrogen) supplemented with 2 mM glutamine, 10% heat-inactivated fetal bovine serum and 100 U/mL penicillin-streptomycin (Invitrogen) at 37° C. in a humidified atmosphere with 5% CO2. Before peptide incubation, cells were treated with 5-aminoimidazole-4-carboxamide-1-β-D-ribofuranoside (AICAR) to induce the cytoplasmic mislocalization of TDP-43. JHR2 was prepared by dissolving the lyophilized powder in the cell culture medium. Cells were incubated with polypeptide-containing medium for 3 hr, washed, and UV-illuminated (mercury lamp with 345-385 nm bandpass filter, average power: 8.24 mW/cm^2).
Confocal and Super-Resolution Fluorescence Microscopy with Airy Scan
(§3) For EGFP-TDP-43 expression, 2×10^5 of N2A cells in a 30-mm square coverslip were transfected with 1 μg of full-length TDP-43-EGFP plasmid with TurboFect Transfection Reagent (Thermo Scientific) according to the manufacturer's protocol. After peptide and photolysis treatment as described above, cells were incubated for an additional 24 hr and then fixed with 4 paraformaldehyde. Confocal images were captured with LSM 880 and super resolution imaging was performed with Airy Scan (Zeiss, Germany). […]

Series [3] deals with endogenous TDP-43 in N2A cells. Kind of series: Endogenous TDP-43 aggregates in N2A cells (immunostaining, high content analysis). The format is cell-based, mouse. As to conditions: pinhole-confined UV light spot, 24 hr incubation. On the procedure:
as §1, §2, §3

The subject of series [4] is EGFP-TDP-43 in N2A cells. Briefly: Time-lapse living cell fluorescence microscopy and Annexin V staining. The format is cell-based, mouse. As to the method: Time-lapse Living Fluorescence Cell Microscopy and Annexin V Staining
N2A cells (5×10^4) were transfected with 1 μg of full-length TDP-43-EGFP in a sterilized 35 mm μ-Dish (Ibidi, Martinsried, Germany). The living cells were imaged with a Nikon TiE inverted microscope equipped with a Tokai-hit constant humidity chamber (37° C., 5% CO2) for 25 hr. Hoechst, EGFP, Aleax Fluor 568 and Cy5 cube filters were used to collect the fluorescence emission accordingly. Cellular images were captured with an Andor iXon3 888 back-illuminated high sensitivity EMCCD camera. Images were analyzed and quantified using Nikon NIS element software. After 24 hr of peptide treatment, the cells were washed twice with PBS, washed once with 1× Annexin V binding buffer, incubated with Annexin V-Cy5 (BioVision, USA) at room temperature and imaged.

For series [5], the system named is EGFP-TDP-43 in N2A cells. Briefly: Microinjection of probe into N2A cells and irradiation. It is filed as cell-based, mouse. As to conditions: N2A cells microinjected, data not shown. The text has this: The glass microneedles for microinjection (1B100-F4, World Precision Instruments, USA) were pulled with a PC-10 capillary puller (Narishige, Japan). […] A Picospriterzer III microinjection system and a joystick micromanipulator (Narishige, Japan) mounted with a stage-side of a microscope (IX-71, Olympus, Japan) were used for delivering the peptide solution into the cytosol of N2A cells. After microinjection (injection pressure, 80 hPa; injection time, 100 msec; compensation pressure, 20 hPa), cells were subsequently rinsed with 2 mL of L-15 medium supplemented with 10% FBS for 1 hr of recovery.

In series [6] the test system is Ran (RAS-related nuclear protein). Briefly: Localization of endogenous Ran in JHR2-treated cells. It is filed as cell-based. On the procedure:
as §2
For EGFP-TDP-43 expression, 2×10^5 of N2A cells in a 30-mm square coverslip were transfected with 1 μg of full-length TDP-43-EGFP plasmid with TurboFect Transfection Reagent (Thermo Scientific) according to the manufacturer's protocol. After peptide and photolysis treatment as described above, cells were incubated for an additional 24 hr and then fixed with 4 paraformaldehyde. Confocal images were captured with LSM 880 and super resolution imaging was performed with Airy Scan (Zeiss, Germany). For immunostaining, anti-TDP-43 antibody (Abcam, ab104223) and anti-Ran (Abcam, ab155103) antibody were used, respectively.

Series [7] has as its system TDP-43 and importin-α1. Kind of series: Localization of endogenous TDP-43 and importin-α1 in JHR2-treated cells. The format is cell-based.

This note sets out measurements from US20180021460A1, “PROBES AND METHODS FOR DETECTING AMYLOIDOGENIC PROTEINS” (Academia Sinica, priority 2016, published 2018).

Non-standard residues stand in square brackets, D forms with d. No end group written: not given here. o‑nitrobenzyl photocleavable linker = o-nitrobenzyl photocleavable moiety placed between the 8R peptide and the amyloidogenic sequence; Alexa568 = Alexa568 fluorophore linked to the cysteine residue

Take “JHR2: Same peptide probe as JHR1 with Alexa568 fluorophore linked to the cysteine residue instead of tert-butyl thiol (RRRRRRRR[o‑nitrobenzyl photocleavable linker]MGGGMNFGAFSINPAMC(Alexa568)-NH2)”: the “time to detection of massive fibrils (TEM)” value in series [1] is at most 4 h. The “aggregates of JHR2 and EGFP-TDP-43 after irradiation” value in series [2] (AICAR pretreated, 24 hrs after non-focused light 335-379 nm, 8.24 mW/cm^2, 3 mins) is “developed pronounced aggregates and/or inclusion bodies that were largely co-localized in the cytosol”. Moreover, the cell penetration result in series [2] (JHR2 1 μM, 3 hr) is recorded as “may quickly penetrate cells”. Moreover, the “seeding of endogenous TDP-43 cytosolic aggregation within confined illuminated area” value in series [3] was “selectively induced the JHR2 amyloid to “seed” endogenous TDP-43 cytosolic aggregation”. Further, the “time at which EGFP-TDP-43 puncta became detectable” value in series [4] (N2A cells expressing EGFP-TDP-43, with JHR2, after illumination) was “Twenty hours after illumination, the EGFP-TDP-43 puncta became detectable”. In addition, the “apoptosis by Annexin V staining” value in series [4] (N2A cells with EGFP-TDP-43 inclusion bodies, end of time course 25 hr) is given as “on the verge of apoptosis”. Moreover, in series [5], the “onset of EGFP-TDP43 aggregation after microinjection and irradiation” value was 4 h; the “onset of clustering of JHR2 after microinjection and irradiation” value was found to be 2 h. In addition, the “Ran protein miss-localized into the cytoplasm” value in series [6] (+JHR2+Light) is above 90%. In addition, the “Ran localization, probe-treated only (no light)” value in series [6] (+JHR2−Light) is reported as “mainly resided in the nucleus”. Also, in series [7] (+JHR2+Light), the “TDP-43 and importin-α1 localization under photoactivation” value was “translocated from the nucleus to cytosol and formed aggregates”. In addition, in series [7] (+JHR2−Light), the “importin-α1 localization, probe-treated only (no light)” value was “mainly remained in the nucleus”.
